Measurements from PubChem BioAssay (NCI).
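1) Cells in 96-well plates. 2) Compound, 48 h, 5 concentrations. 3) Linear interpolation between surrounding doses. 4) Unreached endpoint = highest concentration. The concentration for full growth arrest is given as TGI.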 Where a SMILES comes first, the peptide text is derived from it.

What was measured:
Experiment in all cases: DTP human tumour cell line panel, 48 h
COLO 205 colon = tested on: COLO 205 colon
DU-145 prostate = tested on: DU-145 prostate
HCT-15 colon = tested on: HCT-15 colon
HS 578T breast = tested on: HS 578T breast
HT29 colon = tested on: HT29 colon
LOX IMVI melanoma = tested on: LOX IMVI melanoma
MCF7 breast = tested on: MCF7 breast
MDA-N = tested on: MDA-N
MOLT-4 leukemia = tested on: MOLT-4 leukemia
OVCAR-5 ovarian = tested on: OVCAR-5 ovarian
PC-3 prostate = tested on: PC-3 prostate
SF-295 CNS = tested on: SF-295 CNS
SK-MEL-28 melanoma = tested on: SK-MEL-28 melanoma
SK-MEL-5 melanoma = tested on: SK-MEL-5 melanoma
SNB-75 CNS = tested on: SNB-75 CNS
SR leukemia = tested on: SR leukemia
U251 CNS = tested on: U251 CNS
UACC-257 melanoma = tested on: UACC-257 melanoma
UO-31 renal = tested on: UO-31 renal

Compound	TGI (COLO 205 colon) [µM]	TGI (DU-145 prostate) [µM]	TGI (HCT-15 colon) [µM]	TGI (HS 578T breast) [µM]	TGI (HT29 colon) [µM]	TGI (LOX IMVI melanoma) [µM]	TGI (MCF7 breast) [µM]	TGI (MDA-N) [µM]	TGI (MOLT-4 leukemia) [µM]	TGI (OVCAR-5 ovarian) [µM]	TGI (PC-3 prostate) [µM]	TGI (SF-295 CNS) [µM]	TGI (SK-MEL-28 melanoma) [µM]	TGI (SK-MEL-5 melanoma) [µM]	TGI (SNB-75 CNS) [µM]	TGI (SR leukemia) [µM]	TGI (U251 CNS) [µM]	TGI (UACC-257 melanoma) [µM]	TGI (UO-31 renal) [µM]
CC(=O)NC(CS)C(=O)NC(CO)C(=O)NC(CO)C(=O)NC(Cc1c[nH]c2ccccc12)C(=O)N1CCCC1C(=O)NC(CO)C(=O)NC(Cc1c[nH]c2ccccc12)C(=O)NC(Cc1c[nH]cn1)C(=O)NC(CO)C(=O)NC(Cc1c[nH]c2ccccc12)C(=O)NCC(=O)NCC(=O)NC(CC(=O)O)C(=O)NC(CCC(N)=O)C(=O)NC(CCCCN)C(=O)NC(Cc1ccccc1)C(=O)NC(CCCNC(=N)N)C(=O)NC(CCCCN)C(N)=O (configuration not stated) (Ac-CSSWPSWHSWGGDQKFRK-NH2; configuration not given here)	> 25	> 25	> 25	> 25	> 25	> 25	> 25	> 25	> 25	> 25	> 25	> 25	> 25	> 25	> 25	> 25	> 25	> 25	> 25
CC#Cc1cc2c(cc1O)CC[C@@H]1[C@@H]2CC[C@]2(C)[C@@H](O)CC[C@@H]12	33.4	46.9	14.2	29.5	30.5	19.5	64.3	0.547	17.2	48.4	39	2.73	23.7	13.8	27.6	25.7	7.81	28.1	39
COc1ccc(C2CC(c3ccc4ccccc4c3O)=NN2C(C)=O)cc1OC (configuration not stated)	> 100	> 100	> 100	> 100	> 100	–	> 100	> 100	> 100	> 100	> 100	> 100	> 100	> 100	> 100	> 100	> 100	> 100	> 100
Cc1cc(S(=O)(=O)NC2=NC(c3ccccc3)c3ccccc3N2)c(S)cc1Cl (configuration not stated)	> 100	> 100	> 100	> 100	> 100	> 100	> 100	> 100	> 100	> 100	80.9	> 100	> 100	> 100	> 100	58.3	> 100	> 100	46.5
CN1CCCC1=NC#N	> 100	> 100	> 100	> 100	> 100	> 100	> 100	> 100	> 100	> 100	> 100	> 100	> 100	> 100	> 100	> 100	> 100	–	> 100
COc1c(C)c(C/C=C(\C)CCCCO)c(OC)c(OC)c1OC	> 100	> 100	> 100	> 100	> 100	61.2	> 100	> 100	> 100	> 100	> 100	> 100	–	> 100	> 100	> 100	> 100	> 100	> 100
C[C@H]1CCCCC[C@@H]2CC(=O)CC2C(=O)CCC(=O)O1 (some centres not stated)	> 100	> 100	> 100	> 100	> 100	–	> 100	> 100	> 100	> 100	> 100	> 100	> 100	> 100	> 100	> 100	> 100	> 100	–
OCc1ccc2c(c1)CC1(C2)Cc2cc3c(cc2C1)CCC3	–	> 100	> 100	29.3	> 100	> 100	> 100	1.74	> 100	> 100	> 34.6	> 44.5	> 100	> 31.2	8.18	> 100	> 100	> 100	> 100
COc1cc2c(cc1OC)C1CCc3ccccc3CN1CC2 (configuration not stated)	> 100	> 100	> 100	> 100	> 100	> 100	> 100	> 100	> 100	> 100	> 100	> 100	> 100	> 100	> 100	> 100	> 100	> 100	–
N#Cc1c(N)c2c(c(-c3ccccc3)c1-c1ccccc1)C(=O)N(NC(=O)c1ccccc1)C2=O	> 100	> 100	> 100	> 100	–	> 100	> 100	> 100	> 100	> 100	> 100	> 100	> 100	> 100	> 100	> 100	> 100	> 100	> 100
COc1cc2nc(-c3ccccc3F)[nH]c(=O)c2cc1OC	> 100	> 100	> 100	> 100	> 100	> 100	> 100	> 100	> 100	> 100	> 100	> 100	–	> 100	> 100	> 100	–	> 100	> 100
COCOCC1CCCN1CN1CCC[C@H]1COCOC (some centres not stated)	> 100	> 100	> 100	> 100	> 100	–	> 100	> 100	> 100	> 100	> 100	> 100	> 100	> 100	> 100	> 100	> 100	> 100	> 100
